{
  "source": "paper PMC12645437",
  "about": "“Orthogonal IMiD-Degron Pairs Induce Selective Protein Degradation in Cells” (ACS Chemical Biology, 2025)",
  "key": {"[1]": {"biological_target": "T1, endogenous IKZF3 in Jurkat cells (Homo sapiens, UniProt Q96SW2+Q9UKT9)", "T1 construct": "endogenous in cells; host or cells: Jurkat (transduced with ZF-EGFP constructs, or untransduced)", "assay": "Western blot for endogenous IKZF3", "type": "cell-based", "conditions": "18 h"}, "[2]": {"tested_on": "MM.1S cells", "assay": "TMTpro quantitative proteomics, 16 h", "conditions": "10 μM", "method": "(§1) Quantitative proteomics screens were carried out in untransduced Jurkat cells, embryonic stem cells (ESCs), and the multiple myeloma cell line, MM.1S. We used Jurkat cells, as our work up to this point had employed this cell line, and we selected ESCs and MM.1S cells as they express known CRBN neosubstrates, including IKZF1, IKZF3, RAB28, RNF166, SALL4, ZFP91, and ZNF827.\n(§2) Proteomics - cell lysis and protein digestion\n(§3) The viability of Jurkat cells was tested after 16-h treatment with corresponding chemicals\nviable cells in each condition. Next, ~10^7 cells per condition were collected by centrifugation (1000 rpm), washed twice with ice-cold PBS, and lysed in RIPA buffer [50 mM HEPES pH 7.4, 150 mM NaCl, 1% sodium deoxycholate, 1% NP-40, 0.1% SDS, 10 mM sodium pyrophosphate, 10 mM β-glycerophosphate, 2.5 mM MgCl2, 200 µM TCEP, phosphatase and protease inhibitor cocktail (in-house)], to produce whole cell extracts. Whole-cell extracts were sonicated, and protein concentrations were determined using the Bradford assay. Protein extracts (100 µg) were subjected to disulfide bond reduction with 5 mM TCEP (10 min) and alkylation with 25 mM chloroacetamide (20 min). Methanol–chloroform precipitation was performed prior to protease digestion. […]"}, "[3]": {"biological_target": "T2, WT IKZF3-derived degron fused to EGFP (Homo sapiens, UniProt Q96SW2+Q9UKT9)", "T2 construct": "Plasmid: pLVX-Sprout-IKZF3 130-189aa (WT); expressed in transfected cells", "T2 sequence (Q9UKT9 130-189)": "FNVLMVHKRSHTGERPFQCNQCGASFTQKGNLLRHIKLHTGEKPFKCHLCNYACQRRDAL", "T2 sequence (Q96SW2 whole entry, the tested form may be a part)": "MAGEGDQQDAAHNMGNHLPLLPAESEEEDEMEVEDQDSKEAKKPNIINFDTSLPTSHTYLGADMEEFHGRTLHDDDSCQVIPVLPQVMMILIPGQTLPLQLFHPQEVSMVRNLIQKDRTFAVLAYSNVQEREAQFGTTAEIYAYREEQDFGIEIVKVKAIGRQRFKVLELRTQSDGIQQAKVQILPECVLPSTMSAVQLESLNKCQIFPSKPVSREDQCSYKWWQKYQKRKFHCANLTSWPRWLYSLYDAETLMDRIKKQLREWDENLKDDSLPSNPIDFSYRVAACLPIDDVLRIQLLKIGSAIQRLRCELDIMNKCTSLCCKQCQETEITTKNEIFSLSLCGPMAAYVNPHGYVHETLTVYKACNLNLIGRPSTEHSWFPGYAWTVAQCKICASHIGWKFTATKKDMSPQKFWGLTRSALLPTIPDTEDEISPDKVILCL", "T2 sequence (Q16531 whole entry partner, the tested form may be a part)": "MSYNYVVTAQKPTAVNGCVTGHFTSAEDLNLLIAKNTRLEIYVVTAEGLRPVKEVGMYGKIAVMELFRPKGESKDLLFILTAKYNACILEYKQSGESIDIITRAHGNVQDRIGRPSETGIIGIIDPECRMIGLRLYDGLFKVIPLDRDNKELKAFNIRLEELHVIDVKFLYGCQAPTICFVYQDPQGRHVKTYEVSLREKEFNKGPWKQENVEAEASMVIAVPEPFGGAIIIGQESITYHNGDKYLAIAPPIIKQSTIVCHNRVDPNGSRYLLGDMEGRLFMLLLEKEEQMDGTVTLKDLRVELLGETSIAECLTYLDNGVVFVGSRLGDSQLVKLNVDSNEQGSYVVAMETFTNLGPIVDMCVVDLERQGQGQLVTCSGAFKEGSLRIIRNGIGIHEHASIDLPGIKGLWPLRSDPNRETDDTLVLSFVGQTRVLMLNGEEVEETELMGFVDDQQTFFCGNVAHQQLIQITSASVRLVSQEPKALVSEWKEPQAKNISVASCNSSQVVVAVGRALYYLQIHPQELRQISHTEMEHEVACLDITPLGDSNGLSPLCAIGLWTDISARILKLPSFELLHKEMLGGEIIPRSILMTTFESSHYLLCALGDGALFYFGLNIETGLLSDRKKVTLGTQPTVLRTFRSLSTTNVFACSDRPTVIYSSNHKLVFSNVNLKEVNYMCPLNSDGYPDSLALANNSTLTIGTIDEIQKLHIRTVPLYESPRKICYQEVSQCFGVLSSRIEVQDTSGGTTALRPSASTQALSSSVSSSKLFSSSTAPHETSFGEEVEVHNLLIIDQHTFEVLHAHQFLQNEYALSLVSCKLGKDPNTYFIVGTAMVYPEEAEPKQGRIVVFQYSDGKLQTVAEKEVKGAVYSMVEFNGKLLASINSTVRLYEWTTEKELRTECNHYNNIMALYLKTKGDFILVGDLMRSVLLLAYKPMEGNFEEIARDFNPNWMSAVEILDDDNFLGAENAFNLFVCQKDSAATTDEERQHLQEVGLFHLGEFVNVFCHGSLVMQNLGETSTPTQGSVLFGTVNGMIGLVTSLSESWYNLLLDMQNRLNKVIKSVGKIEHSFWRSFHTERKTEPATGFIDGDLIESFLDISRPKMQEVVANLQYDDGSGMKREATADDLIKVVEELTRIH", "assay": "Ratiometric EGFP:mCherry flow cytometry degradation assay, 18 h", "type": "cell-based", "conditions": "Jurkat"}, "[4]": {"biological_target": "WEIS mutant ZF degron fused to EGFP (Homo sapiens, UniProt Q96SW2+Q9UKT9, N149E/Q147W/Q150I)", "sequence (Q9UKT9 130-189 Q147W/N149E/Q150I)": "as the sequence (Q9UKT9 130-189) above, with Q18W, N20E, Q21I counted along it", "sequence (Q96SW2 whole entry, the tested form may be a part)": "as the sequence (Q96SW2 whole entry, the tested form may be a part) above", "sequence (Q16531 whole entry partner, the tested form may be a part)": "as the sequence (Q16531 whole entry partner, the tested form may be a part) above", "assay": "Ratiometric EGFP:mCherry flow cytometry degradation assay, 18 h"}, "[5]": {"tested_on": "Jurkat cells", "assay": "TMTpro quantitative proteomics, 16 h", "conditions": "Jurkat, 10 μM, 16 h; 9644 quantified proteins", "method": "as §1, §2, §3\nviable cells in each condition. Next, ~10^7 cells per condition were collected by centrifugation (1000 rpm), washed twice with ice-cold PBS, and lysed in RIPA buffer [50 mM HEPES pH 7.4, 150 mM NaCl, 1% sodium deoxycholate, 1% NP-40, 0.1% SDS, 10 mM sodium pyrophosphate, 10 mM β-glycerophosphate, 2.5 mM MgCl2, 200 µM TCEP, phosphatase and protease inhibitor cocktail (in-house)], to produce whole cell extracts. Whole-cell extracts were sonicated, and protein concentrations were determined using the Bradford assay. Protein extracts (100 µg) were subjected to disulfide bond reduction with 5 mM TCEP (10 min) and alkylation with 25 mM chloroacetamide (20 min). Methanol–chloroform precipitation was performed prior to protease digestion. In brief, four parts of neat methanol were added to each sample and vortexed, one part chloroform was added to the sample and vortexed, and finally, three parts water was added to the sample and vortexed. The sample was centrifuged at 8000 rpm for 5 min at room temperature and subsequently washed twice with 100% methanol. Samples were resuspended in 100 mM EPPS pH8.5 containing\n0.1% RapiGest and digested at 37 °C for 6 h with trypsin at a 100:1 protein-to-protease ratio.\nSamples were then subjected to TMTpro\nlabeling. The preparation of MM1S cell extracts was conducted using the same procedure as for\nJurkat cells. ESC cells were plated onto 6 cm dishes 24 hours prior to the chemical treatment.\nFollowing the chemical treatment, the cells on the dish were washed with DPBS four times, after\nwhich RIPA buffer was added directly to the dish, and the lysate was collected using a scraper.\nThe whole cell lysates were then processed similarly to the Jurkat cell lysates.\nProteomics - Tandem mass tag labeling\nProline-based reporter isobaric Tandem Mass Tag (TMTpro) labeling of dried peptide samples\nresuspended in 100 mM EPPS pH 8.5, was carried out as follows. TMTpro reagent was added to\nsamples (100 µg peptide), along with acetonitrile, to achieve a final acetonitrile concentration of\napproximately 30% (v/v). Following incubation at room temperature for 1 h, the labeling efficiency\nof a small aliquot was tested. The reaction was then quenched with hydroxylamine to a final\nconcentration of 0.5% (v/v) for 15 min. The TMTpro-labeled samples were pooled together at a\n1:1 ratio. The sample was vacuum centrifuged to near dryness and subjected to C18 solid-phase\nThe dried TMTpro-labeled sample was resuspended in 100 μL of 10 mM NH4HCO3 pH 8.0 and\nfractionated using basic pH reverse phase HPLC 40. Briefly, samples were offline fractionated over\na 90 min run, into 96 fractions by high pH reverse-phase HPLC (Agilent LC1260) through an aeris\npeptide xb-c18 column (Phenomenex; 250 mm × 3.6 mm) for total proteome with mobile phase A\ncontaining 5% acetonitrile and 10 mM NH4HCO3, and mobile phase B containing 90% acetonitrile"}, "[6]": {"tested_on": "library of 8380 IKZF3 degrons fused to EGFP in Jurkat cells", "assay": "Pooled mutant ZF degron library screen (FACS EGFPlow vs EGFP+, NGS), 18 h;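 as to logFC: Log2 fold change of EGFPlow over EGFP+ representation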", "type": "cell-based, human"}, "[7]": {"biological_target": "WDIA mutant ZF degron fused to EGFP (Homo sapiens, UniProt Q96SW2+Q9UKT9, N149D/Q147W/Q150I/S154A)", "sequence (Q9UKT9 130-189 Q147W/N149D/Q150I/S154A)": "as the sequence (Q9UKT9 130-189) above, with Q18W, N20D, Q21I, S25A counted along it", "sequence (Q96SW2 whole entry, the tested form may be a part)": "as the sequence (Q96SW2 whole entry, the tested form may be a part) above", "sequence (Q16531 whole entry partner, the tested form may be a part)": "as the sequence (Q16531 whole entry partner, the tested form may be a part) above", "assay": "Ratiometric EGFP:mCherry flow cytometry degradation assay, 18 h"}, "[8]": {"biological_target": "T3, endogenous IKZF1 (Homo sapiens, UniProt Q13422+Q96SW2)", "T3 construct": "endogenous in cells; host or cells: Jurkat (untransduced for immunostaining; WEIS-EGFP-transduced for the blot)", "assay": "Western blot for IKZF1 in WEIS-EGFP Jurkat cells", "type": "cell-based", "conditions": "Jurkat transduced with EGFP-WEIS, 18 h"}, "[9]": {"biological_target": "T4, Q147A mutant degron (ANQS) fused to EGFP (Homo sapiens, UniProt Q96SW2+Q9UKT9, Q147A)", "T4 construct": "pLVX-Sprout-IKZF3 130-189aa Q147A (ANQS); expressed in transfected cells", "T4 sequence (Q9UKT9 130-189 Q147A)": "as the sequence (Q9UKT9 130-189) above, with Q18A counted along it", "T4 sequence (Q96SW2 whole entry, the tested form may be a part)": "as the sequence (Q96SW2 whole entry, the tested form may be a part) above", "T4 sequence (Q16531 whole entry partner, the tested form may be a part)": "as the sequence (Q16531 whole entry partner, the tested form may be a part) above", "assay": "Ratiometric EGFP:mCherry flow cytometry degradation assay, 18 h", "type": "cell-based", "conditions": "Jurkat, 18 h; Fig 2B; read-out: DMax Q147A/%"}, "[10]": {"biological_target": "T5, endogenous IKZF1 in Jurkat cells (Homo sapiens, UniProt Q13422+Q96SW2)", "T5 construct": "endogenous in cells; host or cells: Jurkat (untransduced for immunostaining; WEIS-EGFP-transduced for the blot)", "assay": "Endogenous IKZF1 immunostaining, fluorescent antibody flow cytometry assay", "type": "cell-based", "conditions": "18 h", "description": "As we sought to screen a large number of mutant ZF degrons with different mutation combinations, we pursued a library screen approach similar to that previously employed by Sievers et al. and Jan et al. , Only the most promising compounds from the original set of 36 were used for the library screen. To help narrow the candidates, a subset of compounds was tested for endogenous IKZF1 degradation in Jurkat cells using a fluorescent antibody flow cytometry assay (Figure S5). […] Thalidomide and lenalidomide were also included as controls.\nEndogenous IKZF1 Immunostaining\n37 °C and 5% CO2. Following incubation, cells were stained with LIVE/DEAD™ Fixable Aqua Dead Cell Stain (Thermo) diluted 1000X in PBS for 30 min at room temperature and then incubated with Human TruStain FcX block (Biolegend) diluted 40X in PBS + 1% FBS (Gibco) for 10 min at room temperature. Intranuclear staining of IKZF1 was carried out using the Transcription Factor Buffer Set (BD Bioscience) according to the manufacturer's protocol and staining with IKZF1 AF488 antibody (clone R32-1149, BD Bioscience) diluted 40X for 30 minutes at room temperature. Cells were acquired on a Cytoflex S (Beckman Coulter) and data analysed using FlowJo 10.8.1 9 (BD)."}, "[11]": {"biological_target": "WNQS mutant ZF degron fused to EGFP (Homo sapiens, UniProt Q96SW2+Q9UKT9, Q147W)", "sequence (Q9UKT9 130-189 Q147W)": "as the sequence (Q9UKT9 130-189) above, with Q18W counted along it", "sequence (Q96SW2 whole entry, the tested form may be a part)": "as the sequence (Q96SW2 whole entry, the tested form may be a part) above", "sequence (Q16531 whole entry partner, the tested form may be a part)": "as the sequence (Q16531 whole entry partner, the tested form may be a part) above", "assay": "Ratiometric EGFP:mCherry flow cytometry degradation assay, 18 h"}},
  "note": "Several values for one entry are separate records, joined by “and”; a condition that tells them apart may be missing. Identical values can stand only once.",
  "data": [
    {"smiles": "CN1CCN(c2ccc3c(c2)C(=O)N(C2CCC(=O)NC2=O)C3=O)CC1", "note": "(centres unmarked) [Compound 23]", "values": [
      {"measurement": "endogenous IKZF3 levels (Western blot)", "setting": "[1]; transduced Jurkat cells", "result": "remained unaffected"},
      {"measurement": "degradation of endogenous IKZF3 (Western blot)", "setting": "[1]; untransduced Jurkat cells", "result": "do not induce degradation of endogenous IKZF3"},
      {"measurement": "proteins degraded (quantitative proteomics)", "setting": "[2]", "result": "did not significantly (Welch’s t test) induce degradation of any protein"},
      {"measurement": "Degradation pDC50 WT", "setting": "[3]; Fig 2B", "result": 5.96},
      {"measurement": "DC50", "setting": "[3]; WT degron, Fig 5A", "result": 631, "unit": "nM"},
      {"measurement": "pDC50", "setting": "[3]; WT degron, Fig 5A", "result": 6.20},
      {"measurement": "Selectivity (WT/mutant)", "setting": "[4]; DC50(WT)/DC50(WEIS)", "result": 35},
      {"measurement": "DC50", "setting": "[4]; WEIS, Jurkat, 18 h", "result": 18.2, "unit": "nM"},
      {"measurement": "pDC50", "setting": "[4]; WEIS, Jurkat, 18 h", "result": 7.74},
      {"measurement": "proteins degraded (quantitative proteomics)", "setting": "[5]", "result": "no major effect on any of the 9644 quantified proteins"},
      {"measurement": "Log2FC", "setting": "[6]; WT degron, residues 146/147/149/150/152/153/154/155/167: FQNQGASFL", "result": "-1.4561 and -1.46"},
      {"measurement": "logFC", "setting": "[6]; degron residues 146/147/149/150/152/153/154/155/167: FADIGAAFL", "result": 2.104},
      {"measurement": "logFC", "setting": "[6]; degron residues 146/147/149/150/152/153/154/155/167: FADIGACFL", "result": 0.9928},
      {"measurement": "logFC", "setting": "[6]; degron residues 146/147/149/150/152/153/154/155/167: FADIGADFL", "result": -0.7621},
      {"measurement": "logFC", "setting": "[6]; degron residues 146/147/149/150/152/153/154/155/167: FADIGAEFL", "result": -0.08962},
      {"measurement": "Log2FC", "setting": "[6]; degron residues 146/147/149/150/152/153/154/155/167: FWDIGAAFL (WDIA)", "result": "4.2601 and 4.26"},
      {"measurement": "Log2FC", "setting": "[6]; degron residues 146/147/149/150/152/153/154/155/167: FWDIGANFL", "result": "4.2762 and 4.276"},
      {"measurement": "Log2FC", "setting": "[6]; degron residues 146/147/149/150/152/153/154/155/167: FWDIGASFL", "result": 4.2199},
      {"measurement": "Log2FC", "setting": "[6]; degron residues 146/147/149/150/152/153/154/155/167: FWDVGAAFL", "result": 4.1742},
      {"measurement": "Log2FC", "setting": "[6]; degron residues 146/147/149/150/152/153/154/155/167: FWDVGAQFL", "result": 4.2369},
      {"measurement": "Log2FC", "setting": "[6]; degron residues 146/147/149/150/152/153/154/155/167: FWDVGASFL", "result": 4.2017},
      {"measurement": "Log2FC", "setting": "[6]; degron residues 146/147/149/150/152/153/154/155/167: FWEIGACFL", "result": 4.1830},
      {"measurement": "Log2FC", "setting": "[6]; degron residues 146/147/149/150/152/153/154/155/167: FWEIGAHFL", "result": 4.1861},
      {"measurement": "Log2FC", "setting": "[6]; degron residues 146/147/149/150/152/153/154/155/167: FWEIGAKFL (WEIK)", "result": 4.1692},
      {"measurement": "Log2FC", "setting": "[6]; degron residues 146/147/149/150/152/153/154/155/167: FWEIGASFL (WEIS)", "result": "4.4149 and 4.45 and 4.449"},
      {"measurement": "Log2FC", "setting": "[6]; degron residues 146/147/149/150/152/153/154/155/167: FWEQGASFL", "result": 4.1915},
      {"measurement": "Log2FC", "setting": "[6]; degron residues 146/147/149/150/152/153/154/155/167: FWEVGAQFL", "result": 4.1344},
      {"measurement": "Log2FC", "setting": "[6]; degron residues 146/147/149/150/152/153/154/155/167: FWEVGASFL", "result": "4.2567 and 4.257"},
      {"measurement": "Log2FC", "setting": "[6]; degron residues 146/147/149/150/152/153/154/155/167: FWNIGAQFL (WNIQ)", "result": "4.2715 and 4.27 and 4.275"},
      {"measurement": "Log2FC", "setting": "[6]; degron residues 146/147/149/150/152/153/154/155/167: FWNQGASFL (WNQS)", "result": 3.90},
      {"measurement": "Log2FC", "setting": "[6]; degron residues 146/147/149/150/152/153/154/155/167: FWNVGASFL", "result": 4.1357},
      {"measurement": "Log2FC", "setting": "[6]; degron residues 146/147/149/150/152/153/154/155/167: FWPVGAQFL", "result": 4.1974},
      {"measurement": "Log2FC", "setting": "[6]; degron residues 146/147/149/150/152/153/154/155/167: FYEIGASFL", "result": 4.1371},
      {"measurement": "Log2FC", "setting": "[6]; degron residues 146/147/149/150/152/153/154/155/167: FYEVGAEFL", "result": 4.1417},
      {"measurement": "Log2FC", "setting": "[6]; degron residues 146/147/149/150/152/153/154/155/167: FYEVGASFL", "result": 4.2356},
      {"measurement": "Selectivity (WT/mutant)", "setting": "[7]; DC50(WT)/DC50(WDIA)", "result": 22.0},
      {"measurement": "DC50", "setting": "[7]; WDIA, Jurkat, 18 h", "result": 28.8, "unit": "nM"},
      {"measurement": "pDC50", "setting": "[7]; WDIA, Jurkat, 18 h", "result": 7.54},
      {"measurement": "degradation of endogenous IKZF1 (Western blot)", "setting": "[8]", "result": "showed no degradation"},
      {"measurement": "Dmax", "setting": "[9]", "result": 79, "unit": "%"},
      {"measurement": "degradation of endogenous IKZF1", "setting": "[10]", "result": "did not induce degradation of endogenous IKZF1"},
      {"measurement": "Selectivity (WT/mutant)", "setting": "[11]; DC50(WT)/DC50(WNQS)", "result": 5},
      {"measurement": "DC50", "setting": "[11]; WNQS, Jurkat, 18 h", "result": 126, "unit": "nM"},
      {"measurement": "pDC50", "setting": "[11]; WNQS, Jurkat, 18 h", "result": 6.90}
    ]}
  ]
}
